{
  "source": "paper PMC12920416",
  "about": "“Preclinical development of [^18F]TAAR1-2203 as a PET radioligand for imaging TAAR1 expression and receptor occupancy” (European Journal of Nuclear Medicine and Molecular Imaging, 2025)",
  "key": {"mouse TAAR1": {"biological_target": "mouse TAAR1 (Mus musculus, UniProt Q923Y8)", "sequence (Q923Y8 whole entry)": "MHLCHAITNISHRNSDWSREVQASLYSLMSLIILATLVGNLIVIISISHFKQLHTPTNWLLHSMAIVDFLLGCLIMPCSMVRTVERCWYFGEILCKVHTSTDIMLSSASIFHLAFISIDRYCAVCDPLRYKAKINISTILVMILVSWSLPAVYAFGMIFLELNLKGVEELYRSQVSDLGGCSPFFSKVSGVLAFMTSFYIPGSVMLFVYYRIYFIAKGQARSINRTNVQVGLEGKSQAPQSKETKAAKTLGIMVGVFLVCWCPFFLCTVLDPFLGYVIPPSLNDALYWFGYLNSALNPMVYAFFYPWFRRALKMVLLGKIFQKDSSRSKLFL", "experiment": "Competition binding assay, mouse TAAR1"}, "rat TAAR1": {"biological_target": "rat TAAR1 (Rattus norvegicus, UniProt Q923Y9)", "sequence (Q923Y9 whole entry)": "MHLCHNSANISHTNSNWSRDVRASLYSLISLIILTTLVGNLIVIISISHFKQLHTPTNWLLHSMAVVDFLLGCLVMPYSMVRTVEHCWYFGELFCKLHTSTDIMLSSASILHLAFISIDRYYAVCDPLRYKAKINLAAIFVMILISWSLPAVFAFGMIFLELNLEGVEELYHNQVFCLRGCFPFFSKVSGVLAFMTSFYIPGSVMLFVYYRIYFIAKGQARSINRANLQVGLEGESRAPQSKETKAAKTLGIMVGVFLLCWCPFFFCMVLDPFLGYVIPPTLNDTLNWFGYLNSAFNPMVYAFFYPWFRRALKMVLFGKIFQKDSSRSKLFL", "experiment": "Competition binding assay, rat TAAR1"}, "TAAR1 [1]": {"biological_target": "TAAR1", "experiment": "Competition binding assay, cynomolgus monkey TAAR1"}, "TAAR1 [2]": {"biological_target": "T1, TAAR1 (Homo sapiens, UniProt Q96RJ0)", "T1 sequence (Q96RJ0 1-339)": "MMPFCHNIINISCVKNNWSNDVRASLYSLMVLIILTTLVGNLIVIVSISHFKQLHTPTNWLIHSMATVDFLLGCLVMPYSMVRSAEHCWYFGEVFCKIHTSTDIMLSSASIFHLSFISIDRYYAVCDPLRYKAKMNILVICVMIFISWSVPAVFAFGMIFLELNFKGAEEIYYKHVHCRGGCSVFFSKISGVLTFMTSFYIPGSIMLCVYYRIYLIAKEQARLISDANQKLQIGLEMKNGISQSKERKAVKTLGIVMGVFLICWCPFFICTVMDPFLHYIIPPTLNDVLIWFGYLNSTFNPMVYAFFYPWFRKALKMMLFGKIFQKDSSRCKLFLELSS", "experiment": "Competition binding assay, human TAAR1"}, "[3]": {"experiment": "Plasma stability of non-radioactive reference, mouse plasma", "format": "in vitro ADME", "conditions": "37 °C, up to 5 h"}, "[4]": {"experiment": "Plasma stability of non-radioactive reference, rat plasma", "format": "in vitro ADME", "conditions": "37 °C, up to 5 h"}, "[5]": {"experiment": "Plasma stability of non-radioactive reference, non-human primate plasma", "format": "in vitro ADME", "conditions": "37 °C, up to 5 h"}, "[6]": {"experiment": "Plasma stability of non-radioactive reference, human plasma", "format": "in vitro ADME", "conditions": "37 °C, up to 5 h"}, "[7]": {"experiment": "4-week repeat dose toxicity study, dogs", "format": "in vivo", "conditions": "4-week repeat dose toxicity study"}, "[8]": {"experiment": "4-week repeat dose toxicity study, rats", "format": "in vivo", "conditions": "4-week repeat dose toxicity study"}, "Aqueous solubility": {"experiment": "Aqueous solubility", "format": "physicochemical", "conditions": "pH 6.5 in 0.05 M phosphate buffer", "text": "(§1) ^a Aqueous solubility at pH 6.5 in 0.05 M phosphate buffer; ^b pH 7.4"}, "[9]": {"experiment": "logD (physicochemical profiling)", "conditions": "pH 7.4", "text": "as §1"}, "PAMPA permeability": {"experiment": "PAMPA permeability", "format": "in vitro ADME", "text": "(§2) Supplement 259_2025_7564_MOESM1_ESM.docx, table 1: Supplemental Table 1. Physicochemical properties of TAAR1-2203. | column: 194.2"}, "[10]": {"experiment": "Chemical stability in aqueous buffer", "format": "physicochemical", "conditions": "pH 1, 4, 6.5 and 8 for 2 h at 37 °C", "text": "as §2"}, "[11]": {"experiment": "Clearance in human liver microsomes", "format": "in vitro ADME", "text": "(§3) Supplement 259_2025_7564_MOESM1_ESM.docx, table 2: Supplemental Table 2. ADME profile of TAAR1 ligand TAAR1-2203. | column: 14 / 10"}, "[12]": {"experiment": "Clearance in rat liver microsomes", "format": "in vitro ADME", "text": "as §3"}, "[13]": {"experiment": "Clearance in human hepatocytes", "format": "in vitro ADME", "text": "as §3"}, "[14]": {"experiment": "Clearance in rat hepatocytes", "format": "in vitro ADME", "text": "as §3"}, "[15]": {"experiment": "Plasma protein binding of TAAR1-2203, human plasma", "format": "in vitro ADME"}, "[16]": {"experiment": "Plasma protein binding of TAAR1-2203, rat plasma", "format": "in vitro ADME"}, "human P-glycoprotein": {"biological_target": "human P-glycoprotein (Homo sapiens, UniProt P08183)", "sequence (P08183 whole entry)": "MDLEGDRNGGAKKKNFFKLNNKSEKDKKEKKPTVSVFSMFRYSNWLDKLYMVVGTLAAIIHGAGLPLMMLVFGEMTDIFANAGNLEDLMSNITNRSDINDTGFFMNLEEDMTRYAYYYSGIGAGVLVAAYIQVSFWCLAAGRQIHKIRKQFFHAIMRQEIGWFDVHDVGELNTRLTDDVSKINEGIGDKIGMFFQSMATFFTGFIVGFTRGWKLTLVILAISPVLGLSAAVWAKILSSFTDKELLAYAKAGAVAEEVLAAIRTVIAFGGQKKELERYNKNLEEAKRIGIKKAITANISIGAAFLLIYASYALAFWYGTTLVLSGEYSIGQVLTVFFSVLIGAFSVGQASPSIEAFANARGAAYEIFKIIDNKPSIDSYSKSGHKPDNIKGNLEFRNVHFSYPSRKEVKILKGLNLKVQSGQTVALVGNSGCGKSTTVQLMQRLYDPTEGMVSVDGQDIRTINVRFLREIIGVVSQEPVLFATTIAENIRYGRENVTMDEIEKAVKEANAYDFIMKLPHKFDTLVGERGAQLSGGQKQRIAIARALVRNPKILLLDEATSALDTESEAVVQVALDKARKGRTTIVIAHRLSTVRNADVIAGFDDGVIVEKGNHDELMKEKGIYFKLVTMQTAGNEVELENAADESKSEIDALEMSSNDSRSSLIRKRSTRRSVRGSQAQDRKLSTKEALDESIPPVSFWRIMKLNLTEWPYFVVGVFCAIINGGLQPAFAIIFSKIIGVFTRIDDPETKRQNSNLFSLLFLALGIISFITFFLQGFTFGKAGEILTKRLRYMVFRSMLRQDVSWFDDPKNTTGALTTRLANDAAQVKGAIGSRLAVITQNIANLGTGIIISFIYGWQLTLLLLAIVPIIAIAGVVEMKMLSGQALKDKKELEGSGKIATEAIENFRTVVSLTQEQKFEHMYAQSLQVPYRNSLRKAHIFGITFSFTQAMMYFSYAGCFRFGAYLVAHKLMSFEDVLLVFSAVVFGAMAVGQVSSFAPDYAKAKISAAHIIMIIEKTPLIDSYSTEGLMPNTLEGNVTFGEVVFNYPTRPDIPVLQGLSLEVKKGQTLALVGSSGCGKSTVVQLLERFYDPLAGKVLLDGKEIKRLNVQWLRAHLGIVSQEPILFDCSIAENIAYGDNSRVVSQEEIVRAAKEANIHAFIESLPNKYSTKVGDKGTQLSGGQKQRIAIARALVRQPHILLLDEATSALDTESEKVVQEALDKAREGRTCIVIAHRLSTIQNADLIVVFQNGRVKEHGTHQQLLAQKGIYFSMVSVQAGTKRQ", "experiment": "P-glycoprotein efflux assay, human P-gp", "format": "in vitro ADME"}, "mouse P-glycoprotein": {"biological_target": "mouse P-glycoprotein (Mus musculus, UniProt P21447)", "sequence (P21447 whole entry)": "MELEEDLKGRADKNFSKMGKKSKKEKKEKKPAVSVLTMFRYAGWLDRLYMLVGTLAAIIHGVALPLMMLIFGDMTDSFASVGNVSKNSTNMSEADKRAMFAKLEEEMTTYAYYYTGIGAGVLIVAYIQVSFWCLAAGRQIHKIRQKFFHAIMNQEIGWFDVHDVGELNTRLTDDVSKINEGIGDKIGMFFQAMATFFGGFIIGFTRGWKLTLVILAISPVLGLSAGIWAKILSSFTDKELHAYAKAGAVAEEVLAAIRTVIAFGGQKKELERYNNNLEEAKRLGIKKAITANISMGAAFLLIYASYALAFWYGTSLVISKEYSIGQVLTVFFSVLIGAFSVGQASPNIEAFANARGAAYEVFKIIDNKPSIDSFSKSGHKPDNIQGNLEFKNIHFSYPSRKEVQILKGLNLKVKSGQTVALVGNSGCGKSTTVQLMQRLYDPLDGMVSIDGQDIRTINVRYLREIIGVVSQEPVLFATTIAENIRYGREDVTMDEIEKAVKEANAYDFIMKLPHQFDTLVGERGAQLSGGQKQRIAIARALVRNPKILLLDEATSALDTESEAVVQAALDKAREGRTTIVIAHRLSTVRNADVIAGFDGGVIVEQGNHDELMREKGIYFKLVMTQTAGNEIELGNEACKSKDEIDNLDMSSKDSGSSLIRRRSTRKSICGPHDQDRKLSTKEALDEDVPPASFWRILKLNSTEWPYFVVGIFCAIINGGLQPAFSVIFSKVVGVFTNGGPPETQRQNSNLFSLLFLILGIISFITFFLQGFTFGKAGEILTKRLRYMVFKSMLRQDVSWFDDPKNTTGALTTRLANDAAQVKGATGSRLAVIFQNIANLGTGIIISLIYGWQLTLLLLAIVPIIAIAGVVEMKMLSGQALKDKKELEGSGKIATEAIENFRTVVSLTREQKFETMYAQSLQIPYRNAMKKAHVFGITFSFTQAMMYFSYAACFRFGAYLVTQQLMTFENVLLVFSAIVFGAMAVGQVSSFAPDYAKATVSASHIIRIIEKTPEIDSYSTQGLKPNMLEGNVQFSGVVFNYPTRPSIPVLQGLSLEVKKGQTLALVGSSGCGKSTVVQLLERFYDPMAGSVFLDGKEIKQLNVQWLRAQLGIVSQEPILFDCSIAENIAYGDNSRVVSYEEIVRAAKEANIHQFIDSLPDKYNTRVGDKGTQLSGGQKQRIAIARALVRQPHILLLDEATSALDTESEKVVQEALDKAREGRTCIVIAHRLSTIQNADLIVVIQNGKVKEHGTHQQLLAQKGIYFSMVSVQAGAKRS", "experiment": "P-glycoprotein efflux assay, mouse P-gp", "format": "in vitro ADME"}},
  "note": "pKi: −log10 of the molar value.",
  "data": [
    {"smiles": "Cc1c(F)cccc1[C@H]1COC(N)=N1", "note": "[TAAR1-2203]", "values": [
      {"measurement": "pKi", "setting": "mouse TAAR1", "value": 9.05},
      {"measurement": "pKi", "setting": "rat TAAR1", "value": 8.13},
      {"measurement": "pKi", "setting": "TAAR1 [1]", "value": 7.65},
      {"measurement": "pKi", "setting": "TAAR1 [2]", "value": 8.24},
      {"measurement": "Stability in mouse plasma", "setting": "[3]", "value": "No degradation was observed"},
      {"measurement": "Stability in rat plasma", "setting": "[4]", "value": "No degradation was observed"},
      {"measurement": "Stability in non-human primate plasma", "setting": "[5]", "value": "No degradation was observed"},
      {"measurement": "Stability in human plasma", "setting": "[6]", "value": "No degradation was observed"},
      {"measurement": "Doses well tolerated without adverse events, dogs", "setting": "[7]", "value": "up to 3 mg/kg"},
      {"measurement": "Doses well tolerated without adverse events, rats", "setting": "[8]", "value": "≤ 10", "unit": "mg/kg"},
      {"measurement": "Solubility", "setting": "Aqueous solubility", "value": 210, "unit": "µg/mL"},
      {"measurement": "logD", "setting": "[9]", "value": 1.12},
      {"measurement": "PAMPA Peff", "setting": "PAMPA permeability", "value": 14.5, "unit": "cm/s*10E^-6"},
      {"measurement": "Chemical stability in aqueous buffer", "setting": "[10]", "value": "Stable at pH 1, 4, 6.5 and 8 for 2 h at 37 °C"},
      {"measurement": "human clearance in microsomes", "setting": "[11]", "value": 14, "unit": "µL/min/mg protein"},
      {"measurement": "rat clearance in microsomes", "setting": "[12]", "value": 10, "unit": "µL/min/mg protein"},
      {"measurement": "human clearance in hepatocytes", "setting": "[13]", "value": 10, "unit": "µL/min/10E6 cells"},
      {"measurement": "rat clearance in hepatocytes", "setting": "[14]", "value": 1.7, "unit": "µL/min/10E6 cells"},
      {"measurement": "human plasma free fraction", "setting": "[15]; human", "value": 62, "unit": "%"},
      {"measurement": "Free fraction in human plasma", "setting": "[15]; non-radioactive TAAR1-2203", "value": "approximately 60%"},
      {"measurement": "Free fraction in rodent plasma", "setting": "[16]; non-radioactive TAAR1-2203", "value": "approximately 60%"},
      {"measurement": "Free fraction in rat plasma", "setting": "[16]; rat", "value": 61, "unit": "%"},
      {"measurement": "Papp, AB inhibitor, human P-glycoprotein assay", "setting": "human P-glycoprotein", "value": 41.2, "unit": "×10⁻⁶ cm/s"},
      {"measurement": "human P-glycoprotein efflux ratio", "setting": "human P-glycoprotein", "value": 1.2},
      {"measurement": "Papp, AB inhibitor, mouse P-glycoprotein assay", "setting": "mouse P-glycoprotein", "value": 31.6, "unit": "×10⁻⁶ cm/s"},
      {"measurement": "mouse P-glycoprotein efflux ratio", "setting": "mouse P-glycoprotein", "value": 1.0}
    ]}
  ]
}
